According to ChEMBL document CHEMBL1157740, “The discovery of novel tartrate-based TNF-alpha converting enzyme (TACE) inhibitors” (Bioorg Med Chem Lett, 2010):

Legend:
[1] = target: Disintegrin and metalloproteinase domain-containing protein 17 (Homo sapiens, UniProt P78536); assay: Inhibition of TACE
[2] = target: T1, Disintegrin and metalloproteinase domain-containing protein 10 (Homo sapiens, UniProt O14672); assay: Inhibition of ADAM10
T1 sequence (O14672 whole entry): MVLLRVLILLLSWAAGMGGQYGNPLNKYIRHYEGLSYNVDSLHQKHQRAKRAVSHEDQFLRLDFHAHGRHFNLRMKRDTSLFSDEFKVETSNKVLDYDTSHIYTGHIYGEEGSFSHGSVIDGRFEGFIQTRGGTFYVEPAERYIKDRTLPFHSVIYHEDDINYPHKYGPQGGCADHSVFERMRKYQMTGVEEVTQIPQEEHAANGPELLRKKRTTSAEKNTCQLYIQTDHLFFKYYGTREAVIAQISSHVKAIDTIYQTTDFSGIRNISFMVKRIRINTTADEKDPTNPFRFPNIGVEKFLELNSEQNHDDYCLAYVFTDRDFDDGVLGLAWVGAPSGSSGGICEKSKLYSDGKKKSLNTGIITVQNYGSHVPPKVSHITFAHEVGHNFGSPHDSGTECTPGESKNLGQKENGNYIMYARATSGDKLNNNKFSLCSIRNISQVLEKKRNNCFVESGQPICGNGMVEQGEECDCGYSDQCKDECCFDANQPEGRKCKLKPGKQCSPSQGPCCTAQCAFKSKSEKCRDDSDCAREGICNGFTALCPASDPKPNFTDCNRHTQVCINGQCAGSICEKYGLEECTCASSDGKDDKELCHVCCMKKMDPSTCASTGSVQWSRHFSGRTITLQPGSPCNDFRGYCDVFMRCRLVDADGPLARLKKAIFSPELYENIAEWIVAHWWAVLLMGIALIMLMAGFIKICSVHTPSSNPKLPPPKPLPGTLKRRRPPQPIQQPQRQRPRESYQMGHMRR

[3] = target: T2, Interstitial collagenase (Homo sapiens, UniProt P03956); assay: Inhibition of MMP1
T2 sequence (P03956 whole entry): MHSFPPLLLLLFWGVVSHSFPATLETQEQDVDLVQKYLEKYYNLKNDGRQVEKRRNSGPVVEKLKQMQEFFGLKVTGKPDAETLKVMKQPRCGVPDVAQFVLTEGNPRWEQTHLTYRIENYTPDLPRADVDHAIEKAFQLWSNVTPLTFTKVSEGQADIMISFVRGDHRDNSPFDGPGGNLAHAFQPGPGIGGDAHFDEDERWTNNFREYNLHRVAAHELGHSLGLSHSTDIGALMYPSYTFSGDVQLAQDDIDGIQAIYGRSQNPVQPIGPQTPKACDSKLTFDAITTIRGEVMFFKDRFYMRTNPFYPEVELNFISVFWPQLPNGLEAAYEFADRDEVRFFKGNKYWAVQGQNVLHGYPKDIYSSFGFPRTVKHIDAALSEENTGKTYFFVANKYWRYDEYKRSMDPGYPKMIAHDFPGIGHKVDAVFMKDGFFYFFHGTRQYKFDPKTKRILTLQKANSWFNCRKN

[4] = target: 72 kDa type IV collagenase (Homo sapiens, UniProt P08253); assay: Inhibition of MMP2
[5] = target: Stromelysin-1 (Homo sapiens, UniProt P08254); assay: Inhibition of MMP3
[6] = target: T3, Matrilysin (Homo sapiens, UniProt P09237); assay: Inhibition of MMP7
T3 sequence (P09237 whole entry): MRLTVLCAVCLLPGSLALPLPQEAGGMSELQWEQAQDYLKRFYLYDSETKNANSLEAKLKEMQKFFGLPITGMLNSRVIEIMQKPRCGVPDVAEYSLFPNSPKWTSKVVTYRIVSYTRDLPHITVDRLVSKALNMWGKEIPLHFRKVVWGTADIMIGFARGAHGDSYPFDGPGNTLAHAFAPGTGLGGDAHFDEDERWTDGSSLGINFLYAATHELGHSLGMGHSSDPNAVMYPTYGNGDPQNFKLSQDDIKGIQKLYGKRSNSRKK

[7] = target: Macrophage metalloelastase (Homo sapiens, UniProt P39900); assay: Inhibition of MMP12
[8] = target: Collagenase 3 (Homo sapiens, UniProt P45452); assay: Inhibition of MMP13
[9] = target: Matrix metalloproteinase-14 (Homo sapiens, UniProt P50281); assay: Inhibition of MMP14

Chain of Macrophage metalloelastase (P39900 whole entry): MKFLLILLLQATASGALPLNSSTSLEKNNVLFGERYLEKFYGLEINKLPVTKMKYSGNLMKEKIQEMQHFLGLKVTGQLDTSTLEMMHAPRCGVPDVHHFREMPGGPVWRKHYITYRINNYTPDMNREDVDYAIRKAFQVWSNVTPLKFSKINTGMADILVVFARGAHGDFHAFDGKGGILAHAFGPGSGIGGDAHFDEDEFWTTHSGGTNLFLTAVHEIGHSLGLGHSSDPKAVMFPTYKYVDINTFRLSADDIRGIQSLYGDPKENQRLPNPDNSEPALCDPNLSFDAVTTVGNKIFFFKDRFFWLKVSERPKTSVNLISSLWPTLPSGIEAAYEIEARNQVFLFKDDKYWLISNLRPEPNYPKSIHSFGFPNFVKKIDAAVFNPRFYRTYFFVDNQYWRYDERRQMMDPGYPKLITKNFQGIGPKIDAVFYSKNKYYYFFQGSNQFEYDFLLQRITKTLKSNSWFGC
Chain of Disintegrin and metalloproteinase domain-containing protein 17 (P78536 whole entry, the tested form may be a part): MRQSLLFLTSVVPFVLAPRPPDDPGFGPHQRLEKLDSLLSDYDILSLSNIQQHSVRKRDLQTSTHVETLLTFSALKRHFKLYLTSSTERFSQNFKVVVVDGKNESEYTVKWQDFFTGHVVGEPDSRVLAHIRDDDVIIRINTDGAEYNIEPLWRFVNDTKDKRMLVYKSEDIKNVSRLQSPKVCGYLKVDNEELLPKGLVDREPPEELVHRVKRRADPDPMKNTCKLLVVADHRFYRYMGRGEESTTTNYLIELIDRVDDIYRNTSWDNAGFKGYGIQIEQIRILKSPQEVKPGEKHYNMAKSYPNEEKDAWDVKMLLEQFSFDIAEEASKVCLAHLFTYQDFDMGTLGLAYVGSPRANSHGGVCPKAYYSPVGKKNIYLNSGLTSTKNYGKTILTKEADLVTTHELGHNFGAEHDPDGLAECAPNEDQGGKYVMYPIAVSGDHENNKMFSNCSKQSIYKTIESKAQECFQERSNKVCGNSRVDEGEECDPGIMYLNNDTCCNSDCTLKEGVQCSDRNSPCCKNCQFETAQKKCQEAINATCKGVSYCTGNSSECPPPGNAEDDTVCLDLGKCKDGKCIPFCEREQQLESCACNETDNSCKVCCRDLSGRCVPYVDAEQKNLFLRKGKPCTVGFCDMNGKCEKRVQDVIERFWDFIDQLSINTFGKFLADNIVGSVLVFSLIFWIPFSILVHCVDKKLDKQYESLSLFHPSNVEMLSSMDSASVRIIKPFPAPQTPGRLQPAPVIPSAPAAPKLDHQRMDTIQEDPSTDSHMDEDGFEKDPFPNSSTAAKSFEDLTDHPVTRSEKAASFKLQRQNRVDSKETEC
Chain of 72 kDa type IV collagenase (P08253 whole entry): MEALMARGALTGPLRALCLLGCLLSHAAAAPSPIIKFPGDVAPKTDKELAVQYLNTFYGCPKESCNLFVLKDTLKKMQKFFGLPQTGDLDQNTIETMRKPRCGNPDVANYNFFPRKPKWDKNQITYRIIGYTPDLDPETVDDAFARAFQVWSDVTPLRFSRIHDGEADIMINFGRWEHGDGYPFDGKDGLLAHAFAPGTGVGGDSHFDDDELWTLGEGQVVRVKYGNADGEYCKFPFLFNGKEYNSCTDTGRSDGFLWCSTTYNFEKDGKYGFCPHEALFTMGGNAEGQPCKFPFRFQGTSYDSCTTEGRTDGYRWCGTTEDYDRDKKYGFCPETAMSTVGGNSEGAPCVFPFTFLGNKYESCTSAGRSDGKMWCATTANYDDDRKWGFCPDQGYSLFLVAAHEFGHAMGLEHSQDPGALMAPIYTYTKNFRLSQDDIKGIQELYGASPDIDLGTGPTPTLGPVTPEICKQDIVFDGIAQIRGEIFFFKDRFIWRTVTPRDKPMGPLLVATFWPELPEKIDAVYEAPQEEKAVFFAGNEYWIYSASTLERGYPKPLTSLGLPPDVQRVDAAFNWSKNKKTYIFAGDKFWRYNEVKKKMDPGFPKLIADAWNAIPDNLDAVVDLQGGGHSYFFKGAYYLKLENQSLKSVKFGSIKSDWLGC
Chain of Stromelysin-1 (P08254 whole entry): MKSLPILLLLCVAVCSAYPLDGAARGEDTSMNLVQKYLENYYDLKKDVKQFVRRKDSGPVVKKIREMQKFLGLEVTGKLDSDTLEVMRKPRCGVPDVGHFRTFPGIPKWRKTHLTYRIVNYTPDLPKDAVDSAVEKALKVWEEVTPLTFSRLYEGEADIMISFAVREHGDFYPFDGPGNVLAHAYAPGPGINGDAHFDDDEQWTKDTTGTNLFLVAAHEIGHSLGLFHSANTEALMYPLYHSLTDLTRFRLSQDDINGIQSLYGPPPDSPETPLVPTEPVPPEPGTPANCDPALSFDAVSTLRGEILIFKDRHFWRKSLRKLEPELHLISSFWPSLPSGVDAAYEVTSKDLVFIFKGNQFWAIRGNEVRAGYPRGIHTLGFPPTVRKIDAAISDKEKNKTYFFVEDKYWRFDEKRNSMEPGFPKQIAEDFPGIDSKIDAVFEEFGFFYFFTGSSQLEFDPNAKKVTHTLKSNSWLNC

Row | Ki ([1]; read-out: Ki) [nM] | SMILES | also measured
1 |  | O=C(C[C@@H](O)C(=O)N1CCCC1c1cccc(Cl)c1)NCCc1cccs1 (some centres undefined) | Ki [1]: Not Active
2 | 1520 | O=C(NCc1cc(Cc2ccccc2Cl)cs1)[C@H](O)[C@@H](O)C(=S)N1CCCC1c1cccc(Cl)c1 (some centres undefined) | 
3 | 10600 | Cn1ccnc1[C@H](O)[C@@H](O)C(=O)NCCc1cccs1 | 
4 | 1300 | CN(C)C(=O)[C@H](O)[C@@H](O)C(=O)NCCc1cccs1 | 
5 | 96 | O=C(NCCc1cccs1)[C@H](O)[C@@H](O)C(=O)N1CCCC1c1ccccc1 (some centres undefined) | 
6 | 41 | CN(C)c1cccc(C2CCCN2C(=O)[C@H](O)[C@@H](O)C(=O)NCCc2cccs2)c1 (some centres undefined) | 
7 |  | O=C(NCCc1cccs1)[C@H](O)[C@@H](O)C(=O)NCc1ccccc1 | Ki [1]: Not Active
8 | 400 | O=C(NCCc1cccs1)[C@H](O)[C@@H](O)C(=O)N1CCN(c2ccccc2Cl)CC1 | Ki [2]: 400 nM; Ki [3]: > 90000 nM; Ki [4]: > 30000 nM; Ki [5]: > 50000 nM; Ki [6]: > 60000 nM; Ki [7]: 9000 nM; Ki [8]: 7000 nM; Ki [9]: > 40000 nM
9 | 33 | COc1cccc(C2CCCN2C(=O)[C@H](O)[C@@H](O)C(=O)N(C)CCc2cccs2)c1 (some centres undefined) | 
10 | 5530 | O=C(NCCc1cccs1)[C@H](O)[C@@H](O)c1nccs1 | 
11 | 48 | O=C(NCCc1nc(Cc2ccccc2)cs1)[C@H](O)[C@@H](O)C(=O)N1CCCC1c1ccccc1 (some centres undefined) | 
12 | 2500 | O=C(NCCc1cccs1)[C@H](O)[C@@H](O)C(=O)N1CCN(c2ccccn2)CC1 | 
13 | 13 | Cc1cccc(C2CCCN2C(=O)[C@H](O)[C@@H](O)C(=O)N(C)CCc2cccs2)c1 (some centres undefined) | 
14 | 755 | O=C(NCCc1cccs1)[C@H](O)[C@@H](O)C(=O)N1CCCC1c1ccc(Cl)cc1 (some centres undefined) | 
15 | 1100 | O=C(NCCc1cccs1)[C@H](O)[C@@H](O)C(=O)N1CCC(Cc2ccccc2)CC1 | 
16 | 66 | O=C(NCCc1cccs1)[C@H](O)[C@@H](O)C(=O)N1Cc2ccccc2C1 | 
17 | 1020 | CN(Cc1ccco1)C(=O)[C@H](O)[C@@H](O)C(=O)NCCc1cccs1 | 
18 | 11 | O=C(NCCc1cccs1)[C@H](O)[C@@H](O)C(=O)N1CCCC1c1cccc(Cl)c1 (some centres undefined) | Ki [2]: 29 nM; Ki [3]: > 50000 nM; Ki [4]: 33000 nM; Ki [5]: 17000 nM; Ki [6]: > 50000 nM; Ki [7]: > 50000 nM; Ki [8]: 20000 nM; Ki [9]: 11000 nM
19 | 764 | CN(Cc1ccccc1)C(=O)[C@H](O)[C@@H](O)C(=O)NCCc1cccs1 | 
20 | 323 | O=C(NCCc1cccs1)[C@H](O)[C@@H](O)C(=O)N1CCCC1c1ccccc1Cl (some centres undefined) | 
21 | 943 | CN(Cc1cccnc1)C(=O)[C@H](O)[C@@H](O)C(=O)NCCc1cccs1 | 
22 | 1280 | CN(CCc1ccccc1)C(=O)[C@H](O)[C@@H](O)C(=O)NCCc1cccs1 | 
23 |  | CN(CCc1cccs1)C(=O)[C@H](O)[C@@H](O)C(=O)N1CCN(c2ccccc2Cl)CC1 | Ki [1]: Not Active
24 | 1110 | O=C([C@H](O)[C@@H](O)C(=S)NCc1cc(Cc2ccccc2Cl)cs1)N1CCCC1c1cccc(Cl)c1 (some centres undefined) | 
25 | 1400 | CN(C(=O)[C@H](O)[C@@H](O)C(=O)NCCc1cccs1)C1CCCCC1 | 
26 |  | O=C(NCCc1cccs1)[C@H](O)CC(=O)N1CCCC1c1cccc(Cl)c1 (some centres undefined) | Ki [1]: Not Active
27 | 1440 | O=C(NCc1ccccc1)[C@H](O)[C@@H](O)C(=O)N1CCCC1c1cccc(Cl)c1 (some centres undefined) | 
28 | 20 | O=C(NCCc1cccs1)[C@H](O)[C@@H](O)C(=O)N1CCC[C@@H]1c1ccccc1 | 

Row | SMILES | Ki ([1]; read-out: Ki) [nM] | also measured
29 | COc1cccc(N2CCN(C(=O)[C@H](O)[C@@H](O)C(=O)NCCc3cccs3)CC2)c1 | 400 | 
30 | O=C(NCCc1cccs1)[C@H](O)[C@@H](O)C(=O)N1CCC(c2ccccc2)C1 (some centres undefined) | 456 | 
31 | O=C(NCc1nc(Cc2ccccc2)co1)[C@H](O)[C@@H](O)C(=O)N1CCCC1c1ccccc1 (some centres undefined) | 22 | 
32 | O=C(NCCc1nc(Cc2ccccc2)co1)[C@H](O)[C@@H](O)C(=O)N1CCCC1c1ccccc1 (some centres undefined) | 461 | 
33 | O=C(NCCc1cc(Cc2ccccc2)cs1)[C@H](O)[C@@H](O)C(=O)N1CCCC1c1ccccc1 (some centres undefined) | 66 | Ki [2]: > 25000 nM; Ki [3]: > 50000 nM; Ki [4]: > 50000 nM; Ki [6]: 6000 nM; Ki [7]: 700 nM; Ki [8]: 3600 nM; Ki [9]: > 30000 nM
34 | O=C(NCc1cc(Cc2ccccc2)cs1)[C@H](O)[C@@H](O)C(=O)N1CCCC1c1ccc(F)cc1 (some centres undefined) | 93 | 
35 | C[C@H](c1ccccc1)N(C)C(=O)[C@H](O)[C@@H](O)C(=O)NCCc1cccs1 | 238 | 
36 | O=C(NCc1nc(Cc2ccccc2)cs1)[C@H](O)[C@@H](O)C(=O)N1CCCC1c1ccccc1 (some centres undefined) | 8 | 
37 | O=C(NCCc1cccs1)[C@H](O)[C@@H](O)C(=O)N1CCc2ccccc2C1 | 91 | 
38 | C[C@@H](c1ccccc1)N(C)C(=O)[C@H](O)[C@@H](O)C(=O)NCCc1cccs1 | 487 | 
39 | O=C(NCc1cc2ccccc2o1)[C@H](O)[C@@H](O)C(=O)N1CCCC1c1ccccc1 (some centres undefined) | 160 | Ki [2]: 734 nM; Ki [3]: 18700 nM; Ki [4]: 300 nM; Ki [5]: 7700 nM; Ki [6]: > 50000 nM; Ki [8]: 510 nM; Ki [9]: 140 nM
40 | O=C(NCCc1cccs1)[C@H](O)[C@@H](O)C(=O)N1CCCC1c1ccccn1 (some centres undefined) | 188 | 
41 | O=C(NCc1ccc(Cc2ccccc2)cc1)[C@H](O)[C@@H](O)C(=O)N1CCCC1c1cccc(Cl)c1 (some centres undefined) | 70 | 
42 | O=C(NCc1cc(CC2C=CC=CC2Cl)cs1)[C@H](O)[C@@H](O)C(=O)N1CCC[C@@H]1c1cccc(Cl)c1 (some centres undefined) | 13 | 
43 | O=C(NCCc1cccs1)[C@H](O)[C@@H](O)C(=O)N1CCCC1c1nccs1 (some centres undefined) | 164 | 
44 | O=C(NCCc1cccs1)[C@H](O)[C@@H](O)C(=O)N1CCCCC1c1ccccc1 (some centres undefined) | 325 | 
